{"source": "patent US20240025906A1", "about": "(NEURON23, INC., priority 2022, published 2024)", "data": [{"test_system": "JAK1/TYK2 pSTAT5 (Tyr694/699) in THP-1 cell line", "assay": "IFNa-stimulated JAK1/TYK2 pSTAT5 (Tyr694/699) inhibition cellular assay, AlphaLISA", "type": "cell-based", "conditions": "Homo sapiens; THP-1 cells, IFNa-stimulated pSTAT5 (Tyr694/699), AlphaLISA (Assay B); read-out: Cellular_THP1_IFNa-pSTATS_TYK2", "experimental": "(§1) Assay B: JAK1/TYK2 pSTAT5 (Tyr694/699) inhibition IC50 Cellular Assays\n(§2) To evaluate the inhibition effect of compounds disclosed herein against TYK2, an IFNa-stimulated JAE1/TYK2 pSTAT5 (Tyr694/699) quantification assay was conducted in the THP-1 cell line using an AlphaLISA detection method (PerkinElmer ALSU-PST5). Compounds in DMSO were serially diluted in a 96-well plate (10 mM starting concentration, 6-fold dilutions, 8 concentrations total) prior to dispensing of 8 nL into a 384-well plate using an I.DOT non-contact liquid handler (Dispendix). Cells were collected via centrifugation at 300 ref for 5 min and resuspended in Hanks' Balanced Salt Solution (Gibco 14175-079), and 6 μl containing 2e4 cells was dispensed into each well of the 384-well plate containing test compounds or DMSO alone (final concentrations: 10000, 1666.67, 277.78, 46.30, 7.72, 1.29, 0.21 and 0.04 nM). Cells were then incubated for 1 h at 37° C. with 5% CO2 prior to the addition of 2 μL IFNa (100 ng/mL; PBL Assay Science 11175-1). Following an additional 30 min incubation at 37° C. with 5% CO2, 2 μL of 5× lysis buffer was added to each well using the I.DOT […]. Plates were sealed and incubated at RT for 10 min on a plate shaker set to 400 RPM. Cell lysates were then frozen at −80° C. before subsequent detection of pSTAT5 by AlphaLISA. At the time of the detection assay, cell lysates were thawed for 5 min at room temperature and then on a plate shaker set to 400 RPM for an additional 10 min. Following the manufacturer recommended protocol (Perkin Elmer), 5 μL of acceptor bead master mix was added to each well; plates were then resealed and incubated for 2 min at RT on a plate shaker (400 rpm) prior to an additional 2-h incubation without agitation (protected from light). Donor bead master mix, 5 uL per well, was then added to each well before 2 min of shaking (RT, 400 rpm) and 2-h incubation (RT, no shaking, protected from light). Levels of pSTAT5 protein were then measured as fluorescent signal at 615 nm with an EnVision multimode plate reader (Perkin Elmer). IC50 values were calculated in Dotmatics using the four-parameter logistic curve regression model with bottom fixed to 0 and Hill Slope fixed to −1.", "units": {"IC50": "nM"}, "values": [{"smiles": "CNc1ncc(C#Cc2cccc3c2CNCC3)c2cc(NC(=O)C3CC3)ncc12", "note": "[Example 1137, N-(8-(methylamino)-5-((1,2,3,4-tetrahydroisoquinolin-8-yl)ethynyl)-2,7-naphthyridin-3-yl)cyclopropanecarboxamide]", "IC50": "> 500"}, {"smiles": "CNc1ncc(C#Cc2nccc3cc(F)ccc23)c2cc(NC(=O)C3CC3)ncc12", "note": "[Example 1135, N-(5-((6-fluoroisoquinolin-1-yl)ethynyl)-8-(methylamino)-2,7-naphthyridin-3-yl)cyclopropanecarboxamide]", "IC50": "≤ 500"}, {"smiles": "CNc1ncc(C#Cc2ccc3c(=O)n(C)ccc3c2)c2cc(NC(=O)C3CC3)ncc12", "note": "[Example 1136, N-(5-((2-methyl-1-oxo-1,2-dihydroisoquinolin-6-yl)ethynyl)-8-(methylamino)-2,7-naphthyridin-3-yl)cyclopropanecarboxamide]", "IC50": "≤ 500"}, {"smiles": "CNc1ncc(C#Cc2cn(C(F)F)c(C)n2)c2cc(NC(=O)[C@H]3C[C@H]3C)ncc12", "note": "[Example 1139, (1S,2R)—N-(5-((1-(difluoromethyl)-2-methyl-1H-imidazol-4-yl)ethynyl)-8-(methylamino)-2,7-naphthyridin-3-yl)-2-methylcyclopropanecarboxamide]", "IC50": "≤ 500"}, {"smiles": "CNc1ncc(C#Cc2cnc(C)n2C(F)F)c2cc(NC(=O)[C@H]3C[C@H]3C)ncc12", "note": "[Example 1140, (1S,2R)—N-(5-((1-(difluoromethyl)-2-methyl-1H-imidazol-5-yl)ethynyl)-8-(methylamino)-2,7-naphthyridin-3-yl)-2-methylcyclopropanecarboxamide]", "IC50": "≤ 500"}, {"smiles": "CNc1ncc(-c2nc3ncc(C)cc3o2)c2cc(NC(=O)C3CC3)ncc12", "note": "[Example 1104, N-(8-(methylamino)-5-(6-methyloxazolo[4,5-b]pyridin-2-yl)-2,7-naphthyridin-3-yl)cyclopropanecarboxamide]", "IC50": "≤ 500"}]}, {"test_system": "JAK1/TYK2 pSTAT5 (Tyr694/699) in THP-1 cell line", "assay": "IFNa-stimulated JAK1/TYK2 pSTAT5 (Tyr694/699) inhibition cellular assay, AlphaLISA", "type": "cell-based", "conditions": "Homo sapiens; THP-1 cells, IFNa-stimulated, AlphaLISA (Assay B); read-out: Cellular THP1_IFNa-pSTATS_IC50", "experimental": "as §1, §2", "units": {"IC50": "nM"}, "values": [{"smiles": "CNc1ncc(/C=C/c2ccccc2OC)c2cc(NC(=O)C3CC3)ncc12", "note": "[Example 174, (E)-N-(5-(2-methoxystyryl)-8-(methylamino)-2,7-naphthyridin-3-yl)cyclopropanecarboxamide]", "IC50": "≤ 500"}]}, {"test_system": "JAK1/TYK2 pSTAT5 (Tyr694/699) in THP-1 cell line", "assay": "IFNa-stimulated JAK1/TYK2 pSTAT5 (Tyr694/699) inhibition cellular assay, AlphaLISA", "type": "cell-based", "conditions": "Homo sapiens; THP-1 cells, IFNa-stimulated, AlphaLISA (Assay B); read-out: Cellular_THP1_IFNa-pSTATS_TYK2", "experimental": "as §1, §2", "units": {"IC50": "nM"}, "values": [{"smiles": "CNc1ncc(C#Cc2ccc(Cn3ccnn3)cn2)c2cc(NC(=O)C3CC3)ncc12", "note": "[Example 909, N-(5-((5-((1H-1,2,3-triazol-1-yl)methyl)pyridin-2-yl)ethynyl)-8-(methylamino)-2,7-naphthyridin-3-yl)cyclopropanecarboxamide]", "IC50": "≤ 500"}, {"smiles": "CNc1ncc(C#Cc2ccc(CN3CCO[C@@H](C)C3)cc2)c2cc(NC(=O)C3CC3)ncc12", "note": "[Example 814, (S)—N-(8-(methylamino)-5-((4-((2-methylmorpholino)methyl)phenyl)ethynyl)-2,7-naphthyridin-3-yl)cyclopropanecarboxamide]", "IC50": "≤ 500"}, {"smiles": "CNc1ncc(C#Cc2ccc(C(C)(C)O)cc2)c2cc(NC(=O)C3CC3)ncc12", "note": "[Example 802, N-(5-((4-(2-hydroxypropan-2-yl)phenyl)ethynyl)-8-(methylamino)-2,7-naphthyridin-3-yl)cyclopropanecarboxamide]", "IC50": "≤ 500"}, {"smiles": "CNc1ncc(C#Cc2ccc(CC#N)cn2)c2cc(NC(=O)C3CC3)ncc12", "note": "[Example 911, N-(5-((5-(cyanomethyl)pyridin-2-yl)ethynyl)-8-(methylamino)-2,7-naphthyridin-3-yl)cyclopropanecarboxamide]", "IC50": "≤ 500"}, {"smiles": "CNc1ncc(C#Cc2ccc(C(C)(C)C#N)cc2)c2cc(NC(=O)C3CC3)ncc12", "note": "[Example 910, N-(5-((4-(2-cyanopropan-2-yl)phenyl)ethynyl)-8-(methylamino)-2,7-naphthyridin-3-yl)cyclopropanecarboxamide]", "IC50": "≤ 500"}, {"smiles": "CNc1ncc(C#Cc2ccc(Cn3nccn3)cn2)c2cc(NC(=O)C3CC3)ncc12", "note": "[Example 908, N-(5-((5-((2H-1,2,3-triazol-2-yl)methyl)pyridin-2-yl)ethynyl)-8-(methylamino)-2,7-naphthyridin-3-yl)cyclopropanecarboxamide]", "IC50": "≤ 500"}, {"smiles": "CNc1ncc(C#Cc2ccc(Cn3cccn3)cn2)c2cc(NC(=O)C3CC3)ncc12", "note": "[Example 907, N-(5-((5-((1H-pyrazol-1-yl)methyl)pyridin-2-yl)ethynyl)-8-(methylamino)-2,7-naphthyridin-3-yl)cyclopropanecarboxamide]", "IC50": "≤ 500"}, {"smiles": "CNc1ncc(-c2nc3cc(N4CCO[C@@H](C)C4)ccc3o2)c2cc(NC(=O)[C@H]3C[C@H]3C)nnc12", "note": "[Example 891, (1S,2R)-2-methyl-N-(8-(methylamino)-5-(5-((S)-2-methylmorpholino)benzo[d]oxazol-2-yl)pyrido[3,4-c]pyridazin-3-yl)cyclopropane-1-carboxamide]", "IC50": "≤ 500"}, {"smiles": "CNc1ncc(-c2nc3cnc(C(F)F)cc3o2)c2cc(NC(=O)C3CC3)ncc12", "note": "[Example 461, N-(5-(6-(difluoromethyl)oxazolo[4,5-c]pyridin-2-yl)-8-(methylamino)-2,7-naphthyridin-3-yl)cyclopropanecarboxamide]", "IC50": "≤ 500"}, {"smiles": "CNc1ncc(C#Cc2ccc(CN3CC(OC)C3)cn2)c2cc(NC(=O)C3CC3)ncc12", "note": "[Example 912, N-(5-((5-((3-methoxyazetidin-1-yl)methyl)pyridin-2-yl)ethynyl)-8-(methylamino)-2,7-naphthyridin-3-yl)cyclopropanecarboxamide]", "IC50": "≤ 500"}, {"smiles": "CCNc1ncc(-c2nc3cc(N4CC5CNCC(C4)O5)ccc3o2)c2cc(NC(=O)C3CC3)ncc12", "note": "[Example 466, N-(5-(5-(9-oxa-3,7-diazabicyclo[3.3.1]nonan-3-yl)benzo[d]oxazol-2-yl)-8-(ethylamino)-2,7-naphthyridin-3-yl)cyclopropanecarboxamide]", "IC50": "≤ 500"}, {"smiles": "CNc1ncc(-c2cc3ccc(N4CCO[C@@H](C)C4)cn3n2)c2cc(NC(=O)C3CC3)ncc12", "note": "[Example 797, (S)—N-(8-(methylamino)-5-(6-(2-methylmorpholino)pyrazolo[1,5-a]pyridin-2-yl)-2,7-naphthyridin-3-yl)cyclopropanecarboxamide]", "IC50": "≤ 500"}, {"smiles": "CNc1ncc(C#Cc2ccc3nc(CF)n(C)c3c2)c2cc(NC(=O)C3CC3)ncc12", "note": "[Example 810, N-(5-((2-(fluoromethyl)-1-methyl-1H-benzo[d]imidazol-6-yl)ethynyl)-8-(methylamino)-2,7-naphthyridin-3-yl)cyclopropanecarboxamide]", "IC50": "≤ 500"}, {"smiles": "CNc1ncc(C#Cc2ccc(CN3CCC3)cn2)c2cc(NC(=O)C3CC3)ncc12", "note": "[Example 905, N-(5-((5-(azetidin-1-ylmethyl)pyridin-2-yl)ethynyl)-8-(methylamino)-2,7-naphthyridin-3-yl)cyclopropanecarboxamide]", "IC50": "≤ 500"}, {"smiles": "CNc1ncc(C#Cc2ccc(CN3CC(F)(F)C3)cn2)c2cc(NC(=O)C3CC3)ncc12", "note": "[Example 906, N-(5-((5-((3,3-difluoroazetidin-1-yl)methyl)pyridin-2-yl)ethynyl)-8-(methylamino)-2,7-naphthyridin-3-yl)cyclopropanecarboxamide]", "IC50": "≤ 500"}, {"smiles": "CNc1ncc(-c2nc3ccc(N4CCOCC4)cn3n2)c2cc(Nc3ccccn3)nnc12", "note": "[Example 892, N^8-methyl-5-(6-morpholino-[1,2,4]triazolo[1,5-a]pyridin-2-yl)-N^3-(pyridin-2-yl)pyrido[3,4-c]pyridazine-3,8-diamine]", "IC50": "≤ 500"}, {"smiles": "CNc1ncc(C#Cc2ccc3c(c2)CC(=O)N3C)c2cc(NC(=O)C3CC3)ncc12", "note": "[Example 803, N-(5-((1-methyl-2-oxoindolin-5-yl)ethynyl)-8-(methylamino)-2,7-naphthyridin-3-yl)cyclopropanecarboxamide]", "IC50": "≤ 500"}]}, {"test_system": "JAK1/TYK2 pSTAT5 (Tyr694/699) in THP-1 cell line", "assay": "IFNa-stimulated JAK1/TYK2 pSTAT5 (Tyr694/699) inhibition cellular assay, AlphaLISA", "type": "cell-based", "conditions": "THP-1 cells, IFNa-stimulated, AlphaLISA (Assay B); read-out: Cellular_THP1_IFNa-pSTATS_TYK2", "experimental": "as §1, §2", "units": {"IC50": "nM"}, "values": [{"smiles": "CNc1ncc(-c2nc3cc(-c4ncnn4C)ccc3o2)c2cc(NC(=O)C3CC3)ncc12", "note": "[Example 465]", "IC50": "≤ 500"}]}]}
